Experiments:
HIV protease mutant B3 [1] = settings: modified protease B3 (M46I, V77I, V82T)
Text: (§3) The mutations are described relative to the amino acid sequence (1-99) of the reference virus protease (V: Val; I: Ile; M: Met; T: Thr; L: Leu and P: Pro). The level of resistance of the mutants corresponds to the relative increase (compared to the wild-type protease) in the concentration of inhibitors required to inhibit 50% of the viral replication.

wild-type HIV protease [2] = assay type: cell-based; settings: for phenotype in the presence of inhibitor: Cya− in the absence of inhibitor
Procedure: (§1) The bacteria are cultured in Luria-Bertani (LB) liquid or agar (15 g/l agar) medium. Their ability to ferment sugars is tested on McConkey agar medium containing 1% of maltose (Miller, 1972, Experiments in Molecular Genetics, Cold Spring Harbor Lab. Press, Cold Spring Harbor, N.Y.). The antibiotics are used at the following concentrations: ampicillin: 100 μg/ml and kanamycin: 50 μg/ml. The protease inhibitors, indinavir (Crixivan, Merck) and saquinavir (Invirase, Roche) are dissolved, respectively, in ethanol and in water (final concentration 20 mM) and then diluted in the culture media at the concentrations indicated.
A chimeric protein (ACPr) was therefore constructed (example 2), into which is inserted, between amino acids 224 and 225 of the adenyl cyclase, the HIV protease (99 residues) and its two cleavage sequences p5 and p6 (each one 8 amino acids) .

HIV protease mutant V2 [3] = assay: system in cis: phenotype of DHT1 with pKACV2; assay type: cell-based
Procedure: as §1
(§2) For this study, the B1, B3, V1 and V2 proteases are inserted between amino acids 224 and 225 of the adenyl cyclase and the chimeric proteins obtained are expressed in the DHT1 strain (plasmids pKACB1, pKACB3, pKACV1 and pKACV2).

HIV protease mutant B1 = settings: modified protease B1
Text: as §3

HIV protease mutant V2 [4] = assay type: cell-based
Procedure: as §1
The DNA encoding the modified proteases was cloned into the vector of pUC19 (example 2) and the plasmids obtained were cotransformed with pKACp5 into the DHT1 strain. The phenotype of the transformed bacteria is observed on McConkey maltose medium containing or not containing protease inhibitors.

HIV protease mutant B3 [5] = assay: system in cis: phenotype of DHT1 with pKACB3; assay type: cell-based
Procedure: as §1, §2

HIV protease mutant V2 [6] = settings: modified protease V2 (L10I, L63P, L90M)
Text: as §3

wild-type HIV protease [7] = target: wild-type HIV protease (Human immunodeficiency virus type 1 group M subtype B, UniProt P04585); assay type: cell-based
Procedure: as §1
In order to test this system, a recombinant protein according to the invention, ACp5, into which is inserted, between amino acids 224 and 225 of the adenyl cyclase, the p5 cleavage site of the HIV protease, was generated. The plasmid expressing this protein (pKACp5, example 2) was cotransformed into an E. coli cya strain, with a compatible plasmid carrying or not carrying the wild-type HIV protease (pUCVIH or pUC19).

HIV protease mutant V1 = settings: modified protease V1 (L63P)
Text: as §3

Q: Which results are given for CC(C)(C)NC(=O)[C@@H]1C[C@@H]2CCCC[C@@H]2CN1C[C@@H](O)[C@H](Cc1ccccc1)NC(=O)[C@H](CC(N)=O)NC(=O)c1ccc2ccccc2n1 [saquinavir]?
A: Resistance to inhibitor: relative increase (compared to the wild-type protease) in the concentration required to inhibit 50% of the viral replication (HIV protease mutant B3 [1]): 3 X; phenotype on medium containing 20 μM of saquinavir (wild-type HIV protease [2]; pKACPr, system in cis): red colonies; phenotype at 10 μM (wild-type HIV protease [2]; pKACPr, system in cis, 10 μM saquinavir): red; phenotype in the presence of inhibitor (wild-type HIV protease [2]; pKACPr, system in cis): Cya^+; phenotype on medium containing 20 μM of saquinavir (HIV protease mutant V2 [3]): Cya^−; Resistance to inhibitor: relative increase (compared to the wild-type protease) in the concentration required to inhibit 50% of the viral replication (HIV protease mutant B1): 1 X; concentration needed for the bacteria to become Cya+ (HIV protease mutant V2 [4]): 20 µM; phenotype at 10 μM (HIV protease mutant B3 [5]; 10 μM saquinavir): Cya^−; Resistance to inhibitor: relative increase (compared to the wild-type protease) in the concentration required to inhibit 50% of the viral replication (HIV protease mutant V2 [6]): 53 X; concentration needed for the bacteria to become Cya+ (wild-type HIV protease [7]): 10 µM; Resistance to inhibitor: relative increase (compared to the wild-type protease) in the concentration required to inhibit 50% of the viral replication (HIV protease mutant V1): 1 X

Q: How did the “Resistance to inhibitor: relative increase (compared to the wild-type protease) in the concentration required to inhibit 50% of the viral replication” value (HIV protease mutant B3 [1]) turn out when CC(C)(C)NC(=O)[C@@H]1CN(Cc2cccnc2)CCN1C[C@@H](O)C[C@@H](Cc1ccccc1)C(=O)N[C@H]1c2ccccc2C[C@H]1O [indinavir] was run?
A: 13 X

Q: What about the “concentration up to which the bacteria have a Cya− phenotype” value (wild-type HIV protease [2]) of the same compound?
A: 50 µM

Q: What about the “phenotype on medium containing 100 μM indinavir” value (wild-type HIV protease [2]; pKACPr, system in cis) of the same compound?
A: red colonies

Q: And the “phenotype in the presence of inhibitor” value (wild-type HIV protease [2]; pKACPr, system in cis)?
A: Cya^+

Q: And the “phenotype on medium containing 100 μM indinavir” value (HIV protease mutant V2 [3])?
A: Cya^−

Q: And the “Resistance to inhibitor: relative increase (compared to the wild-type protease) in the concentration required to inhibit 50% of the viral replication” value (HIV protease mutant B1)?
A: 1 X

Q: What about the “concentration needed for the bacteria to become Cya+” value (HIV protease mutant V2 [4]) of the same compound?
A: 50 µM

Q: What about the “concentration up to which the bacteria have a Cya− phenotype” value (HIV protease mutant B3 [5]) of the same compound?
A: 100 µM

Q: And the “Resistance to inhibitor: relative increase (compared to the wild-type protease) in the concentration required to inhibit 50% of the viral replication” value (HIV protease mutant V2 [6])?
A: 4 X

Q: What about the “concentration needed for the bacteria to become Cya+” value (wild-type HIV protease [7]) of the same compound?
A: 50 µM

Q: What about the “Resistance to inhibitor: relative increase (compared to the wild-type protease) in the concentration required to inhibit 50% of the viral replication” value (HIV protease mutant V1) of the same compound?
A: 1 X

— patent US20030175735A1, “Recombinant adenylcyclase and use thereof for screening molecules with proteolytic activity” (priority 2000, published 2003)
